Our source for the Ki values is patent US7259161B2, “Compositions useful as inhibitors of JAK and other protein kinases” (Vertex Pharmaceuticals Incorporated, priority 2002, dated 2007).

The structures appear in SMILES notation.

Assay [1] concerns the target T1, JAK3 (Homo sapiens, UniProt P52333).
T1 sequence (P52333 1-1124): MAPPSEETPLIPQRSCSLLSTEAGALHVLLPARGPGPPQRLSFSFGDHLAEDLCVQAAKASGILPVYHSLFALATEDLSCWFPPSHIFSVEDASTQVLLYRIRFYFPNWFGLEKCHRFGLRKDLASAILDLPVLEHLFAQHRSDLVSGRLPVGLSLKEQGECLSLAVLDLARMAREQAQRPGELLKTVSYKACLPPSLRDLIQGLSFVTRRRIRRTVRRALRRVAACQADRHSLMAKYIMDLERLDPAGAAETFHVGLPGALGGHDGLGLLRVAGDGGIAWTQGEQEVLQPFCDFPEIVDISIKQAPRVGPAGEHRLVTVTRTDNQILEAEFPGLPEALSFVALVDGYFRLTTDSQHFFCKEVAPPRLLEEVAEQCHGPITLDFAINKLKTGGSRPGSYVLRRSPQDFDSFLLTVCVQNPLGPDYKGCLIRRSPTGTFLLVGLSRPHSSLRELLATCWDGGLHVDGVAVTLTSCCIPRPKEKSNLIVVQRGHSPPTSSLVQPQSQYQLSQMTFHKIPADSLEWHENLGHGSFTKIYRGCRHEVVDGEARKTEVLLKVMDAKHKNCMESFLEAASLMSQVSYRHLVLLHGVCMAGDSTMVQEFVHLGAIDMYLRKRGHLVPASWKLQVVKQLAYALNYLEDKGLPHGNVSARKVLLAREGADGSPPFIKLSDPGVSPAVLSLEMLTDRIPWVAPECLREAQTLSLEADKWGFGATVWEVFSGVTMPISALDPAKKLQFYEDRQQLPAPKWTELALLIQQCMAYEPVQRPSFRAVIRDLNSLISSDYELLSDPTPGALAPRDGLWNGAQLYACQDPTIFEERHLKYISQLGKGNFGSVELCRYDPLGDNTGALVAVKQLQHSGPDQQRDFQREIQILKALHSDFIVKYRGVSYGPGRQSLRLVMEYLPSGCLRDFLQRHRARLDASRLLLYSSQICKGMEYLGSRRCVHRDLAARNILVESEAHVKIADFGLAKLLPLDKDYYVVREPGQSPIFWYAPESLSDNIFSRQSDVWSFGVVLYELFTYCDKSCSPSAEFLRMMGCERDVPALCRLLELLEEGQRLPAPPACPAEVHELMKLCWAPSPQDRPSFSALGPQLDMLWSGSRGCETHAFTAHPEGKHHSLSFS
Kind of assay: JAK3 inhibition assay. The conditions noted are these: 2 μM ATP, ELISA read at 450 nm. It is filed as biochemical. On the procedure:
Compounds were screened for their ability to inhibit JAK3 according to the method described by G. R. Brown, et al, Bioorg. Med. Chem. Lett. 2000, vol. 10, pp 575–579 in the following manner. Into Maxisorb plates, previously coated at 4° C. with Poly (Glu, Ala, Tyr) 6:3:1 then washed with phosphate buffered saline 0.05% and Tween (PBST), was added 2 μM ATP, 5 MM MgCl2, and a solution of compound in DMSO. The reaction was started with JAK enzyme and the plates incubated for 60 minutes at 30° C. The plates were then washed with PBST, 100 μL HRP-Conjugated 4G10 antibody was added, and the plate incubated for 90 minutes at 30° C. The plate was again washed with PBST, 100 μL TMB solution is added, and the plates were incubated for another 30 minutes at 30° C. Sulfuric acid (100 μL of 1M) was added to stop the reaction and the plate is read at 450 nm to obtain the optical densities for analysis to determine Ki values.

The target in assay [2] is JNK3 (Homo sapiens, UniProt P53779). As to the kind of experiment: JNK3 inhibition assay (spectrophotometric coupled-enzyme assay). The class given is biochemical. The conditions noted are these: 10 μM ATP, 10 nM activated JNK3. On the procedure:
Compounds were assayed for the inhibition of JNK3 by a spectrophotometric coupled-enzyme assay. In this assay, a fixed concentration of activated JNK3 (10 nM) was incubated with various concentrations of a potential inhibitor dissolved in DMSO for 10 minutes at 30° C. in a buffer containing 0.1 M HEPES buffer, pH 7.5, containing 10 mM MgCl2, 2.5 mM phosphoenolpyruvate, 200 μM NADH, 150 μg/mL pyruvate kinase, 50 μg/mL lactate dehydrogenase, and 200 μM EGF receptor peptide. The EGF receptor peptide is a phosphoryl acceptor in the JNK3-catalyzed kinase reaction. The reaction was initiated by the addition of 10 μM ATP and the assay plate is inserted into the spectrophotometer's assay plate compartment that was maintained at 30° C. The decrease of absorbance at 340 nm was monitored as a function of time. The rate data as a function of inhibitor concentration was fitted to competitive inhibition kinetic model to determine the Ki.

Chain of JNK3 (P53779 whole entry, species assumed): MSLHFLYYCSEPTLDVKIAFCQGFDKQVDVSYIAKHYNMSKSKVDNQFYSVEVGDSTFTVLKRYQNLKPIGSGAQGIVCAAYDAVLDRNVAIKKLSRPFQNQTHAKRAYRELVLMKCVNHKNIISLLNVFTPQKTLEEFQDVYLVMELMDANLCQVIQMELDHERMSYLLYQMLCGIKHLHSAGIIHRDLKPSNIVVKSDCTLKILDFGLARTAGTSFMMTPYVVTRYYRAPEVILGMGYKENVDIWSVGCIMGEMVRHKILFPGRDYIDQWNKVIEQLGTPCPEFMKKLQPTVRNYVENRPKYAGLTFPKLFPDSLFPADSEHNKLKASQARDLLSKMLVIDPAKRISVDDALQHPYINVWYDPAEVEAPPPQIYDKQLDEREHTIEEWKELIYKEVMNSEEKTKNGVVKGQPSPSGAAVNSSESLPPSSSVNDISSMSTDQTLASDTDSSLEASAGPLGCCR

Regarding `NS(=O)(=O)c1ccc(Nc2nccc(-c3ccc4c(c3)NC(=O)CO4)n2)cc1` [IVa-23], the Ki in assay [1] is less than 5 µM; in assay [2], less than 1000 nM.
For `CN1C(=O)COc2ccc(-c3ccnc(Nc4ccc(S(N)(=O)=O)cc4)n3)cc21` [IVa-24] the same measures were less than 5 µM and less than 1000 nM.
